Measurements as given in US8927500B2, “Peptidomimetic macrocycles” (Aileron Therapeutics, Inc., priority 2012, dated 2015).
Where a SMILES comes first, the peptide text is derived from it. Bridges are numbered along the chain shown (N, C = ends). [ ]: non-standard residue; d: D form. R8 = C=CCCCCCC[C@@](C)(N)C(=O)O; hLeu = CC(C)CC[C@H](N)C(=O)O; S5 = C=CCCC[C@](C)(N)C(=O)O; Nle = CCCC[C@H](N)C(=O)O

What was measured:
SJSA-1 cells = assay: Cell lysis by peptidomimetic macrocycles (LDH release); assay type: cell-based; conditions: 1 h at 37C
MDMX = molecular target: T1, MDMX (Homo sapiens, UniProt O15151); assay: Competitive fluorescence polarization assay for MDMX; assay type: binding; conditions: competitive FP assay; for IC50: read-out: IC50 (MDMX); for Ki: read-out: Ki (MDMX)
T1 sequence (O15151 1-125): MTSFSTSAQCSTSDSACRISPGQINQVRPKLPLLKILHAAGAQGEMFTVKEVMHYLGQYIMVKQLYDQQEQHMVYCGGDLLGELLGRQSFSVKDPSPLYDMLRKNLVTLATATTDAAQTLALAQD

MDM2 = MDM2 (Homo sapiens, UniProt Q00987); assay: Competitive fluorescence polarization assay for MDM2; assay type: binding; conditions: competitive FP assay, MDM2; for IC50: read-out: IC50 (MDM2); for Ki: read-out: Ki (MDM2)
MDM2, sequence (Q00987 1-125): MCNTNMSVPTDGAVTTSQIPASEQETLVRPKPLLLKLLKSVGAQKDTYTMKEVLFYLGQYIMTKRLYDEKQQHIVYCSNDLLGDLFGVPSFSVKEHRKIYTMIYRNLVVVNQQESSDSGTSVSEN

SMILES | IC50 (MDMX) | Ki (MDMX) | IC50 (MDM2) | Ki (MDM2) | 6.25 uM % Lysed cells (1 h LDH) (SJSA-1 cells) | 25 uM % Lysed cells (1 h LDH) (SJSA-1 cells) | 50 uM % Lysed cells (1 h LDH) (SJSA-1 cells)
CC[C@H](C)[C@H](NC(=O)[C@H](C)NC(=O)[C@H](C)NC(=O)[C@]1(C)CCCC=CCCCCCC[C@@](C)(NC(=O)[C@H](Cc2ccccc2)NC(=O)[C@@H](NC(=O)[C@H](CC(C)C)NC(C)=O)[C@@H](C)O)C(=O)N[C@@H](CCC(=O)O)C(=O)N[C@@H](Cc2ccc(O)cc2)C(=O)N[C@@H](Cc2c[nH]c3ccccc23)C(=O)N[C@@H](C)C(=O)N[C@@H](CCC(N)=O)C(=O)N[C@@H](CC(C)C)C(=O)N1)C(=O)N[C@H](C)C(N)=O (single isomer, unassigned) [compound 217] | 0.1 to 1 µM | 0.01 to 0.1 µM | < 0.01 µM | < 0.01 µM | 2% | 1% | 2%
CCCC[C@H](NC(=O)[C@H](C)NC(=O)[C@H](CO)NC(=O)[C@]1(C)CCCC=CCCCCCC[C@@](C)(NC(=O)[C@H](Cc2ccccc2)NC(=O)[C@@H](NC(=O)[C@H](CC(C)C)NC(C)=O)[C@@H](C)O)C(=O)N[C@@H](C)C(=O)N[C@@H](Cc2ccc(O)cc2)C(=O)N[C@@H](Cc2c[nH]c3ccccc23)C(=O)N[C@@H](C)C(=O)N[C@@H](CCC(N)=O)C(=O)N[C@@H](CC(C)C)C(=O)N1)C(N)=O [compound 3] (Ac-LTF[R8]AYWAQL[S5]SA[Nle]-NH2; staple 4-11) | 0.1 to 1 µM | 0.01 to 0.1 µM | 0.1 to 1 µM | 0.01 to 0.1 µM | 1% | 1% | 3%

The next lines start with results.

IC50 (MDMX) | Ki (MDMX) | IC50 (MDM2) | Ki (MDM2) | SMILES | 6.25 uM % Lysed cells (1 h LDH) (SJSA-1 cells) | 25 uM % Lysed cells (1 h LDH) (SJSA-1 cells) | 50 uM % Lysed cells (1 h LDH) (SJSA-1 cells)
0.1 to 1 µM | 0.01 to 0.1 µM | < 0.01 µM | < 0.01 µM | CC(=O)N[C@@H](CC(C)C)C(=O)N[C@H](C(=O)N[C@@H](Cc1ccccc1)C(=O)N[C@]1(C)CCCCCCC=CCCC[C@@](C)(C(=O)N[C@@H](C)C(=O)N[C@@H](C)C(=O)NC(C)(C)C(=O)N[C@@H](C)C(N)=O)NC(=O)[C@H](CC(C)C)NC(=O)[C@H](CCC(N)=O)NC(=O)[C@H](C)NC(=O)[C@H](Cc2c[nH]c3ccccc23)NC(=O)[C@H](Cc2ccc(O)cc2)NC(=O)[C@H](C)NC1=O)[C@@H](C)O (single isomer, unassigned) [compound 232] | 6% | 5% | 5%
0.01 to 0.1 µM | < 0.01 µM | < 0.01 µM | < 0.01 µM | CC[C@H](C)[C@H](NC(=O)[C@H](C)NC(=O)[C@H](C)NC(=O)[C@]1(C)CCCC=CCCCCCC[C@@](C)(NC(=O)[C@H](Cc2ccccc2)NC(=O)[C@@H](NC(=O)[C@H](CC(C)C)NC(C)=O)[C@@H](C)O)C(=O)N[C@@H](CCC(=O)O)C(=O)N[C@@H](Cc2ccc(C(=O)O)cc2)C(=O)N[C@@H](Cc2c[nH]c3cc(Cl)ccc23)C(=O)N[C@@H](C)C(=O)N[C@@H](CCC(N)=O)C(=O)N[C@@H](CC2CCC2)C(=O)N1)C(=O)N[C@H](C)C(N)=O (single isomer, unassigned) [compound 336] | 0% | 0% | 0%
0.1 to 1 µM | 0.01 to 0.1 µM | 0.1 to 1 µM | 0.01 to 0.1 µM | CC(=O)N[C@@H](CC(C)C)C(=O)N[C@H](C(=O)N[C@@H](Cc1ccccc1)C(=O)N[C@]1(C)CCCCCCC=CCCC[C@@](C)(C(=O)N[C@@H](CO)C(=O)N[C@@H](C)C(=O)N[C@@H](CCC(C)C)C(N)=O)NC(=O)[C@H](CC(C)C)NC(=O)[C@H](CCC(N)=O)NC(=O)[C@H](C)NC(=O)[C@H](Cc2c[nH]c3ccccc23)NC(=O)[C@H](Cc2ccc(O)cc2)NC(=O)[C@H](C)NC1=O)[C@@H](C)O [compound 6] (Ac-LTF[R8]AYWAQL[S5]SA[hLeu]-NH2; staple 4-11) | 1% | 1% | 1%
